Results published in ChEMBL document CHEMBL1201862, “PubChem BioAssay data set” (2004).
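Cultured in 96-well plates, cells were exposed to test compound for 48 hours across five concentrations. Abbreviation: GI50, concentration required for 50% inhibition of growth.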 Activity calls are given as the source filed them. No stated cut-off is given here; in the data, active = GI50 up to about 1.1 µM and inactive = higher.

Tests used:
Assay in all cases: NCI anticancer screen, dose series, 48 h
[1] = test system: HOP-62
[2] = test system: HCT-15
[3] = test system: SK-MEL-28
[4] = test system: COLO 205
[5] = test system: SN12C
[6] = test system: U-251
[7] = test system: UACC-257
[8] = test system: Malme-3M
[9] = test system: K562
[10] = test system: NCI-H522
[11] = test system: UO-31
[12] = test system: NCI-H23
[13] = test system: 786-0
[14] = test system: A498
[15] = test system: KM12
[16] = test system: SF-268

Measured: GI50

CCOC(=O)C1=C(C)N2CCOC2(C)C(C(=O)OC)C1c1cccc(Cl)c1 (centres undefined)
inactive: [1] > 100 µM | [3] > 100 µM | [4] > 100 µM | [5] > 100 µM | [6] > 100 µM | [7] > 100 µM | [8] > 100 µM | [9] 81.5 µM | [10] 88.7 µM | [11] > 100 µM | [12] > 100 µM | [13] > 100 µM | [14] > 100 µM | [15] > 100 µM | [16] > 100 µM
> 100 µM: [2]

COc1ccc2c(c1OC)C(C=C(c1ccccc1)c1ccccc1)CN(C)C2 (centres undefined)
inactive: [1] 20.6 µM | [3] 22.4 µM | [4] 14.5 µM | [5] 25.5 µM | [6] 20 µM | [7] 21.8 µM | [8] 20.2 µM | [9] 6.21 µM | [10] 17.2 µM | [11] 20 µM | [12] 22.4 µM | [13] 16.7 µM | [14] 17 µM | [15] 18.9 µM | [16] 27.1 µM
15 µM: [2]

CCOC(=O)/C(C#N)=C(O)/C(=C/c1ccccc1Cl)NC(=O)c1ccccc1
active: [10] 0.0195 µM
inactive: [1] > 100 µM | [3] > 100 µM | [4] > 100 µM | [5] > 100 µM | [6] > 100 µM | [7] > 100 µM | [8] > 100 µM | [9] 88.1 µM | [11] > 100 µM | [12] > 100 µM | [13] > 100 µM | [14] > 100 µM | [15] > 100 µM | [16] > 100 µM
27.7 µM: [2]

CCOC(=O)C1=C(C)N(NC(=O)Nc2ccccc2)C2(N)N(NC(=O)Nc3ccccc3)C(C)=C(C(=O)OCC)C12C(=O)OCC (centres undefined)
> 100 µM: [2]
inactive: [1] 28.6 µM | [3] 34.4 µM | [4] 1.85 µM | [5] 1.66 µM | [6] 33 µM | [7] 67.3 µM | [8] 33 µM | [9] > 100 µM | [10] 70 µM | [11] 61.7 µM | [12] 64 µM | [13] 45.3 µM | [14] 28.2 µM | [15] > 100 µM | [16] 24.8 µM

CCCCCCCCCCCCCCCCc1c(O)nc(NN)nc1C(=O)OC
inactive: [1] > 50 µM | [3] > 50 µM | [4] > 50 µM | [5] > 50 µM | [6] > 50 µM | [7] > 50 µM | [8] > 50 µM | [9] > 50 µM | [10] > 50 µM | [11] > 50 µM | [12] > 50 µM | [13] > 50 µM | [14] > 50 µM | [15] > 50 µM | [16] > 50 µM
> 50 µM: [2]

Cc1ccc(SSCCCCS(=O)O)cc1
inactive: [1] 28.7 µM | [3] 17.1 µM | [4] 19.5 µM | [5] 11.4 µM | [6] 10.6 µM | [7] 18.5 µM | [8] 19.2 µM | [9] 24.3 µM | [10] 12.5 µM | [11] 10.6 µM | [12] 17.9 µM | [13] 32 µM | [14] 19.1 µM | [15] 18.2 µM | [16] 10 µM
17.5 µM: [2]

CN(C)CCC(=O)c1ccccc1
inactive: [1] > 100 µM | [3] 41 µM | [4] 28.9 µM | [5] > 58.6 µM | [6] > 56.2 µM | [7] 37.8 µM | [8] 16.1 µM | [9] 27.6 µM | [11] > 56.9 µM | [12] > 61.8 µM | [13] 20 µM | [14] > 71.6 µM | [15] 32.5 µM | [16] > 58.5 µM
active: [10] 0.693 µM
24.1 µM: [2]

Nc1nc(O)c2nc(N)n(Cc3ccccc3)c2n1
> 100 µM: [2]
inactive: [1] > 100 µM | [3] > 100 µM | [4] > 100 µM | [5] > 100 µM | [6] > 100 µM | [7] > 100 µM | [8] > 100 µM | [9] > 100 µM | [10] > 100 µM | [11] > 100 µM | [12] > 100 µM | [13] > 100 µM | [14] > 100 µM | [15] > 100 µM | [16] > 100 µM

CC(=O)OCC(=O)[C@@]12OC(C)(C)O[C@@H]1C[C@H]1[C@@H]3CC(C=O)=C4C=C(OCCCl)CC[C@]4(C)[C@@]3(F)[C@@H](O)C[C@@]12C [FORMOCORTAL]
11.6 µM: [2]
inactive: [1] 24.8 µM | [3] 19 µM | [4] 18 µM | [5] 13.3 µM | [6] 14.2 µM | [7] 23.4 µM | [8] 23.6 µM | [9] 4.74 µM | [10] 20.3 µM | [11] 32.2 µM | [12] 15.8 µM | [13] 16.1 µM | [14] 21.9 µM | [15] 16.7 µM | [16] 34.9 µM
